Measured values: US20230293530A1, “AGENTS FOR SENSITIZING SOLID TUMORS TO TREATMENT” (Yeda Research and Development Co. Ltd., priority 2020, published 2023)

Tested on: NSCLC PDX explants with autologous CD8+ T cells
Experiment: Co-culture of NSCLC PDX tumor explants with autologous CD8+ T cells, IFNγ ELISA
Assay type: cell-based, human
Description: Two patients bearing metastatic non-small cell lung cancer (NSCLC) were included in this study. Blood samples and fresh tumor tissue samples were procured just after their biopsy with patient consent and with Helsinki approval (number 0093-19-SOR). The samples were placed in serum free DMEM (Gibco) media then processed for implantation in NSG (NOD scid gamma) mice. Tumor tissue samples were implanted subcutaneously in dorsal flanks of the mice to form patient-derived xenografts (PDXs). All animal experiments were done under Institutional Animal Care and Use Committee (IACUC) of Ben-Gurion University of the Negev (BGU’s IACUC) according to specified protocols aiming to ensure animal welfare and reduce su □ ering. The Animal ethical clearance protocol number used for this research is IL-80-12-2015. After isolation of peripheral blood mononuclear cells (PBMCs) from the peripheral blood of the patients according to standard protocol using Lymphocyte Separation Medium (LSM, MP Biomedicals, SKU 0850494-CF), CD8^+ T cells were isolated from PBMCs by employing human CD8 Microbeads (Miltenyi Biotec, 130-045-201), LS column (Miltenyi Biotec, 130-042-401) and MidiMACS Separator (130-042-302) following manufacturer’s protocol. For culturing and maintenance of CD8 T cells, RPMI containing 10% human male AB plasma (Sigma, H4522), 1 mM sodium pyruvate, 2 mM L-glutamine, 0.1 mM MEM non-essential amino acids, 1% penicillin/streptomycin, 10 mM HEPES (Life Technologies), 200 IU/mL recombinant human IL-2 (PeproTech) and 50 ng/mL anti-human CD3 Antibody (BioLegend, 317302) were used for the first 48 hrs followed by culturing and passaging in media containing 200 IU/mL of IL-2.
2×2×2 mm^3 tumor tissue explants were cut from PDXs with a specific tissue cutter and seeded singly in 48 well flat-bottom plates and incubated with either mizoribine (0.3 mM) in 400 µl of media or with only media for 10 hrs. Then, explants were washed once and transferred into new 48 well flat-bottom plates containing 2×10^5 CD8+T cells/well along with nivolumab (Opdivo, 20 µg/mL), pembrolizumab (Keytruda, 20 µg/mL) or mock solventin fresh 400 µl RPMI containing 20 IU/ml ofIL-2. After 18 hours of incubation, the supernatant was collected from the wells and then assayed for standard IFNγ ELISA assay (ELISA MAX, Biolegend) according to manufacturer’s instructions.
Two patients bearing metastatic non-small cell lung cancer (NSCLC) were included in this study. Blood samples and fresh tumor tissue samples were procured just after their biopsy with patient consent and with Helsinki approval (number 0093-19-SOR). The samples were placed in serum free DMEM (Gibco) media then processed for implantation in NSG (NOD scid gamma) mice (NOD.Cg-Prkdcscid Il2rgtm1Wjl, The Jackson Laboratory). Tumor tissue samples were implanted subcutaneously in dorsal flanks of the 7-9 weeks old male mice to form patient-derived xenografts (PDXs).
After isolation of peripheral blood mononuclear cells (PBMCs) from the peripheral blood of the patients according to standard protocol using Lymphocyte Separation Medium (LSM, MP Biomedicals, SKU 0850494-CF), CD8^+ T cells were isolated from PBMCs by employing human CD8 Microbeads (Miltenyi Biotec, 130-045-201), LS column (Miltenyi Biotec, 130-042-401) and MidiMACS Separator (130-042-302) following manufacturer’s protocol. For culturing and maintenance of CD8 T cells, RPMI containing 10% human male AB plasma (Sigma, H4522), 1 mM sodium pyruvate, 2 mM L-glutamine, 0.1 mM MEM non-essential amino acids, 1% penicillin/streptomycin, 10 mM HEPES (Life Technologies), 200 IU/mL recombinant human IL-2 (PeproTech) and 50 ng/mL anti-human CD3 Antibody (BioLegend, 317302) were used for the first 48 hrs followed by culturing and passaging in media containing 200 IU/mL of IL-2.
PDXs from patients with lung cancer non responsive to anti-PD1 were exposed to no treatment, to mizoribine, or to either EDHB (left panel) or Viagra (right panel). […]

SMILES: NC(=O)c1ncn([C@@H]2O[C@H](CO)[C@@H](O)[C@H]2O)c1O [Mizoribine, mizoribine]
- human IFNγ in supernatant, explant alone (PDX explant alone treated with mizoribine 0.3 mM, no T cells): did not detect human IFNγ
- IFNγ secretion by autologous CD8+ T cells, anti-PD1 plus mizoribine-treated explants (explants pre-treated with mizoribine 0.3 mM 10 hrs, nivolumab or pembrolizumab 20 µg/mL, 18 hours): significant elevation in secretion of IFN-γ
- human IFNγ levels, explant plus autologous CD8+ T cells, no anti-PD1 (mizoribine-treated explants with autologous CD8+T cells): did not induce detectable IFNγ levels
